Test results published in a melting point compilation (Tetko et al.; mined from patent text by program, amines drawn as free bases though some values may be those of a salt).

Compared with `CC(CCC(=O)O)(Sc1cc(C(C)(C)C)c(O)c(C(C)(C)C)c1)Sc1cc(C(C)(C)C)c(O)c(C(C)(C)C)c1`, `CCCC1c2cc(C(C)(C)C)cc(C(C)(C)C)c2OP(=O)(c2ccccc2)Oc2c1cc(C(C)(C)C)cc2C(C)(C)C` (configuration not stated) is higher in melting point: 90 to 92 °C for the first, 232 to 234 °C for the second.

Compared with `CCCc1c(OCCCCCCC2(C)CC(=O)c3ccc(OCC(=O)O)c(CCC)c3O2)ccc(C(C)=O)c1O` (configuration not stated), `CCCCCCCCCCCCCCOc1ccc(O)cc1` is lower in melting point: 120 to 125 °C for the first, 81 to 82 °C for the second.

First: CCC(=O)Nc1c(C)nn(C)c1C#N
Second: COC(=O)c1sc(C#N)cc1[N+](=O)[O-]
The melting point of the first is higher: 153 to 155 °C for the first, 83 to 85 °C for the second.

Compared with `Cc1cccnc1C(O)c1ccc(N)cc1` (configuration not stated), `CCOc1cc(N)ccc1C(O)c1cc(C)ccn1` (configuration not stated) is lower in melting point: 153 to 154 °C for the first, 102 to 105 °C for the second.

Compared with `CCN(C(=O)C(NS(=O)(=O)c1c(C)cc(C)cc1C)C(C)C)c1ccccc1` (configuration not stated), `Nc1c(CC(=O)O)cccc1S(=O)(=O)c1ccccc1` is higher in melting point: 156 to 158 °C for the first, 218 to 220 °C for the second.

First: Cc1nc2sccn2c(=O)c1C
Second: COC(=O)c1cccc(=O)n1C
The melting point of the first is higher: 112 to 113 °C for the first, 56 to 57 °C for the second.

Compared with `O=S1(=O)c2cccc3cccc(c23)N1CCCCN1CC=C(c2ccc(Cl)cc2)CC1`, `O=C(O)CCC(Cc1ccc(Cl)cc1Cl)(C(=O)C=Cc1ccc(Cl)cc1)c1ccccc1` (configuration not stated) is higher in melting point: 12 °C for the first, 215 to 226 °C for the second.

Compared with `OCC1OC(n2cnc3c(NNC4COc5c(Cl)cccc5C4)ncnc32)C(O)C1O` (configuration not stated), `COc1cc2c(Nc3ccc(Cl)cc3F)ncnc2cc1OCCN1CCNC1=O` is higher in melting point: 137 to 139 °C for the first, greater than 250 °C for the second.

First: Cc1ccc(Cn2cc(C(=O)C(=O)O)c3cc(-c4ccc(OC(F)(F)F)cc4)ccc32)cc1
Second: O=C(O)C(=O)c1ccc(OCC(=O)c2ccc3ccccc3c2)cc1
The melting point of the first is higher: 192 to 193 °C for the first, 167 to 170 °C for the second.

First: O=C(O)CNC(=O)c1cc(-c2ccc3c(c2)OCO3)c2c3c(ccc2c1)OCO3
Second: Clc1ccc(CN2CC3(COc4cc5c(cc43)OCO5)c3ccccc32)o1 (configuration not stated)
The melting point of the first is higher: 255 to 257 °C for the first, 148 to 150 °C for the second.

First: CCCC(=O)c1cnc2c(OC)cccc2c1Nc1cccc(CO)c1C
Second: Nc1cccc(-c2ccc(CCNCc3cccc(Cl)c3)c3ccccc23)n1
The melting point of the first is higher: 186 to 188 °C for the first, 60 to 75 °C for the second.

Compared with `CC(C)CNC(=O)c1ccc(C2(F)CC2c2ccc(Br)c(Br)c2)cc1` (configuration not stated), `COc1ccc2c(=O)cc(-c3ccc(OCC(O)CNC4CC4)cc3)oc2c1` (configuration not stated) is lower in melting point: 132 °C for the first, 105 to 106 °C for the second.

First: COc1ccc(OCCCN2CCN(c3ccc(Cl)nn3)CC2)cc1
Second: CS(=O)(=O)c1ccc(Oc2ccc(C#N)cc2)cc1
The melting point of the first is lower: 123 °C for the first, 127 to 128 °C for the second.

First: Cc1nnc2c(-c3ccccc3)nccn12
Second: OCc1ccnc(Nc2ncc(-c3ccccc3)s2)c1
The melting point of the first is lower: 178 to 180 °C for the first, 236 to 237 °C for the second.

First: Cc1cccc2c1NC(C(Cl)(Cl)Cl)OC2 (configuration not stated)
Second: O=C(O)/C=C/c1cc(C2CC2)nn1Cc1ccc(C(F)(F)F)cc1Cl
The melting point of the first is lower: 69 to 70 °C for the first, 191 to 192 °C for the second.

First: O=Cc1sc(Cl)c(Cl)c1Cl
Second: Clc1ncc(-c2nc(Cl)nc(Cl)c2Br)c(Cl)n1
The melting point of the first is lower: 81 to 82 °C for the first, 136 to 138 °C for the second.

Compared with `CN1CCN(C(=S)Nc2ccc3nc(C(C)(C)C)sc3c2)CC1`, `CC1CCCN(c2cc3nc(C(C)(C)C)sc3cc2N=C=S)C1` (configuration not stated) is lower in melting point: 176 to 177 °C for the first, 47 to 52 °C for the second.

First: CC(C)(Oc1ccc(NC(=O)c2cc(Cl)cc(Cl)c2)cc1)C(=O)O
Second: COC(=O)c1c(Cl)cc(Cl)cc1NC(=O)CSc1ccc(NC(=O)c2ccco2)cc1
The melting point of the first is higher: 206 to 207 °C for the first, 133 to 135 °C for the second.

First: Cc1[nH]c(=O)c(C(F)(F)C(F)(F)F)c2c1CC(c1ccncc1)CC2 (configuration not stated)
Second: CN1C(=S)N(c2ccc(C#N)c(C(F)(F)F)c2)C(=O)C1(CO)CO
The melting point of the first is higher: 265 to 300 °C for the first, 169 to 170 °C for the second.

First: CCOC(=O)c1cnn2c1CCC2
Second: CCOC(=O)c1c(C(F)(F)F)nc(C(F)(F)F)c(C)c1OC(C)C
The melting point of the first is lower: 35 to 37 °C for the first, 53 to 55 °C for the second.

First: O=CN(c1cc(Cl)cc(Cl)c1)c1cc(S(=O)(=O)NC(c2ccccc2)c2ccccc2)ccc1Cl
Second: CC(C)(C)OC(=O)Nc1ccc(OC2CN(C(c3ccccc3)c3ccccc3)C2)cc1
The melting point of the first is higher: 196 to 198 °C for the first, 149 to 151 °C for the second.

First: O=C(NCC(C(O)c1ccc([N+](=O)[O-])cc1)N1CCC(Cc2ccccc2)CC1)c1ccccc1 (configuration not stated)
Second: COc1ccccc1C1(O)CCN(C2CCN(C(=O)c3cc(C)cc(C)c3)C(Cc3ccccc3)C2)CC1 (configuration not stated)
The melting point of the first is lower: 143 to 147 °C for the first, 213 °C for the second.

First: N#CCc1c[nH]c2ccc(CS(=O)(=O)NCc3ccccc3C(N)=O)cc12
Second: CC1(C)OC(c2ccc(S(N)(=O)=O)c(Br)c2)=C(c2ccccc2)C1=O
The melting point of the first is higher: 202 to 206 °C for the first, 128 to 132 °C for the second.

First: O=S(=O)(F)c1ccc(N=Nc2ccc(O)c(Cl)c2)cc1
Second: O=C1c2ccccc2CCc2cc(Br)ccc21
The melting point of the first is higher: 133 to 134 °C for the first, 94 to 96 °C for the second.

First: CC(C)NC(=O)c1cc2[nH]cnc2c(Cl)c1NC(=O)c1cc(C(F)(F)F)nn1-c1ncccc1Cl
Second: O=C(Oc1ccccc1)c1cc(Br)nn1-c1ncccc1Cl
The melting point of the first is higher: 200 to 203 °C for the first, 65 to 67 °C for the second.

First: COc1c(N2CCC(N(C)C)C(C)C2)c(F)c(N)c2c(=O)c(C(=O)O)cn(C3CC3)c12 (configuration not stated)
Second: CON1C(=O)[C@@H](NC(=O)OC(C)(C)C)[C@@H]1C1CCCCC1 (relative stereo)
The melting point of the first is higher: 210 °C for the first, 110 to 112 °C for the second.

Compared with `Cc1ccc(-c2cc(C(O)C#Cc3ccc(C(=O)O)cc3)cc3c2C(C)(C)CCC3(C)C)cc1` (configuration not stated), `O=C(c1ccc(-c2ccccn2)cc1)N1Cc2cccn2Cc2ccccc21` is lower in melting point: 180 °C for the first, 170 to 172 °C for the second.

First: Nc1nc2c(s1)CCNCC2
Second: CCC(=O)NC[C@H]1CN(c2ccc3c(c2)CCCc2cnoc2-3)C(=O)O1
The melting point of the first is lower: 150 to 160 °C for the first, 185 to 186 °C for the second.

First: CC(C)=C(C=O)CC(=O)O
Second: COC(=O)[C@H]1CC[C@@H](C(=O)O)CN1S(C)(=O)=O (racemic)
The melting point of the first is lower: 102 °C for the first, 130 to 133 °C for the second.

Compared with `O=C(NCCCSc1ccncc1)c1cccs1`, `O=C(NOCCO)c1ccc(F)cc1Nc1ccc(I)cc1F` is higher in melting point: 112 to 113 °C for the first, 117 to 119 °C for the second.

First: CC(C)CS(=O)c1ccc(N)c([N+](=O)[O-])c1 (configuration not stated)
Second: CCOC(=O)C1=C(N)OC(C)=C(C(=O)OC)C1c1cc([N+](=O)[O-])ccc1Cl (configuration not stated)
The melting point of the first is lower: 111 to 118 °C for the first, 159 °C for the second.

Compared with `CC(C)(C)OC(=O)CN1CCSC1=NC#N`, `COC(=O)C(C)(C)CCCOc1cc(C)c([N+](=O)[O-])cc1C` is lower in melting point: 143 to 144 °C for the first, 73 to 75 °C for the second.

First: Cc1cc(=O)n(-c2cc(C(=O)OC(C)C)c(Cl)cc2F)c(=O)[nH]1
Second: Cc1ccc(Oc2ccc(C#CC(C)N(O)C(N)=O)o2)cn1 (configuration not stated)
The melting point of the first is lower: 134 to 136 °C for the first, 149 °C for the second.

First: N[C@@H](CC(C(=O)O)=C1CCCC1)C(=O)O
Second: CC(C)(O)c1ccc(CNC(=O)c2cccnc2Oc2ccc3c(c2)OCO3)cc1
The melting point of the first is higher: 205 °C for the first, 118 to 120 °C for the second.

Compared with `COCn1ccnc1C(O)(c1ccc(F)cc1)c1ccc(F)cc1`, `O=c1c2cc(F)c(F)cc2n(-c2cccc(F)c2)c(=O)n1OCc1ccccc1` is higher in melting point: 133 °C for the first, 179 to 181 °C for the second.

First: Cc1nccn1-c1nc(-c2ccc(Cl)cc2)c(CCCn2cccn2)o1
Second: CCN(CC)P(N)(N)=S
The melting point of the first is higher: 129 to 130 °C for the first, 54 to 58 °C for the second.
